# Source: ChEMBL document CHEMBL1932984, “Novel bis(indolyl)hydrazide-hydrazones as potent cytotoxic agents” (Bioorg Med Chem Lett, 2012)
# Key:
# Type in all cases: functional, cell-based
# [1] = tested on: LNCaP; assay: Cytotoxicity against human LNCAP cells
# [2] = tested on: MCF7; assay: Cytotoxicity against human MCF7 cells
# [3] = tested on: MDA-MB-231; assay: Cytotoxicity against human MDA-MB-231 cells
# [4] = tested on: DU-145; assay: Cytotoxicity against human DU145 cells
# [5] = tested on: MIA PaCa-2; assay: Cytotoxicity against human MIAPaCa2 cells
# [6] = tested on: PC-3; assay: Cytotoxicity against human PC3 cells
compound,measurement,setting,value
O=C(N/N=C\c1cn(Cc2ccc(Cl)cc2)c2ccccc12)c1c[nH]c2ccccc12,IC50,[1],> 100 µM
same,IC50,[2],96.7 µM
same,IC50,[3],66.4 µM
same,IC50,[4],52.1 µM
same,IC50,[5],44.3 µM
same,IC50,[6],16.2 µM
COc1ccc(Cn2cc(/C=N\NC(=O)c3c[nH]c4ccccc34)c3ccccc32)cc1,IC50,[1],31.9 µM
same,IC50,[2],12.4 µM
same,IC50,[3],15.1 µM
same,IC50,[4],43.9 µM
same,IC50,[5],41.6 µM
same,IC50,[6],14.6 µM
COc1ccc2c(c1)c(/C=N\NC(=O)c1cn(C)c3ccccc13)cn2Cc1ccc(Cl)cc1,IC50,[1],> 100 µM
same,IC50,[2],99.1 µM
same,IC50,[3],> 100 µM
same,IC50,[4],93 µM
same,IC50,[5],56.4 µM
same,IC50,[6],21.2 µM
COc1ccc(Cn2cc(/C=N\NC(=O)c3c[nH]c4ccc(Br)cc34)c3cc(OC)ccc32)cc1,IC50,[1],> 100 µM
same,IC50,[2],3.1 µM
same,IC50,[3],61.2 µM
same,IC50,[4],84.4 µM
same,IC50,[5],44.5 µM
same,IC50,[6],28 µM
O=C(N/N=C\c1cn(Cc2ccc(Cl)cc2)c2ccc(Br)cc12)c1c[nH]c2ccccc12,IC50,[1],3.7 µM
same,IC50,[2],3.2 µM
same,IC50,[3],1 µM
same,IC50,[4],3.6 µM
same,IC50,[5],8.7 µM
same,IC50,[6],12.4 µM
O=C(N/N=C\c1cn(Cc2ccc(Cl)cc2)c2cc(F)ccc12)c1c[nH]c2ccc(Br)cc12,IC50,[1],24.8 µM
same,IC50,[2],8.3 µM
same,IC50,[3],5.1 µM
same,IC50,[4],12.5 µM
same,IC50,[5],10.6 µM
same,IC50,[6],12.4 µM
COc1ccc(Cn2cc(/C=N\NC(=O)c3cn(C)c4ccccc34)c3ccc(F)cc32)cc1,IC50,[1],9.6 µM
same,IC50,[2],22.6 µM
same,IC50,[3],17.7 µM
same,IC50,[4],15.2 µM
same,IC50,[5],55.8 µM
same,IC50,[6],12.8 µM
Cn1cc(C(=O)N/N=C\c2cn(Cc3ccc(Cl)cc3)c3cc(F)ccc23)c2ccccc21,IC50,[1],> 100 µM
same,IC50,[2],90.6 µM
same,IC50,[3],> 100 µM
same,IC50,[4],84.2 µM
same,IC50,[5],50.4 µM
same,IC50,[6],22.1 µM
COc1ccc(Cn2cc(/C=N\NC(=O)c3c[nH]c4ccc(Br)cc34)c3ccc(F)cc32)cc1,IC50,[1],> 100 µM
same,IC50,[2],31.7 µM
same,IC50,[3],99.8 µM
same,IC50,[4],67.5 µM
same,IC50,[5],45.5 µM
same,IC50,[6],21.8 µM
COc1ccc(Cn2cc(/C=N\NC(=O)c3c[nH]c4ccccc34)c3cc(OC)ccc32)cc1,IC50,[1],> 100 µM
same,IC50,[2],15 µM
same,IC50,[3],9.8 µM
same,IC50,[4],19.1 µM
same,IC50,[5],30.5 µM
same,IC50,[6],13.6 µM
COc1ccc(Cn2cc(/C=N\NC(=O)c3c[nH]c4ccccc34)c3ccc(F)cc32)cc1,IC50,[1],> 100 µM
same,IC50,[2],13.1 µM
same,IC50,[3],71.2 µM
same,IC50,[4],16.2 µM
same,IC50,[5],43.3 µM
same,IC50,[6],18.4 µM
COc1ccc2c(c1)c(/C=N\NC(=O)c1c[nH]c3ccccc13)cn2Cc1ccc(Cl)cc1,IC50,[1],> 100 µM
same,IC50,[2],8.7 µM
same,IC50,[3],82.7 µM
same,IC50,[4],50 µM
same,IC50,[5],26.7 µM
same,IC50,[6],30.3 µM
O=C(N/N=C\c1cn(Cc2ccc(Cl)cc2)c2cc(F)ccc12)c1c[nH]c2ccccc12,IC50,[1],55.2 µM
same,IC50,[2],6 µM
same,IC50,[3],5.3 µM
same,IC50,[4],18.6 µM
same,IC50,[5],18 µM
same,IC50,[6],19.5 µM
COc1ccc2c(c1)c(/C=N\NC(=O)c1c[nH]c3ccc(Br)cc13)cn2Cc1ccc(Cl)cc1,IC50,[1],> 100 µM
same,IC50,[2],29.1 µM
same,IC50,[3],5 µM
same,IC50,[4],57 µM
same,IC50,[5],26.3 µM
same,IC50,[6],15.9 µM
COc1cccc2c1C(=O)c1c(O)c3c(c(O)c1C2=O)C[C@@](O)(C(=O)CO)C[C@@H]3O[C@H]1C[C@H](N)[C@H](O)[C@H](C)O1 [DOXORUBICIN],IC50,[1],5.23 µM
same,IC50,[2],11.7 µM
same,IC50,[3],3.07 µM
same,IC50,[4],15.7 µM
same,IC50,[5],18.2 µM
same,IC50,[6],62.3 µM
